pIC50: −log10 of the molar value. Activity calls are given as the source filed them.
What was measured:
Large T antigen = Large T antigen (Simian virus 40, UniProt P03070); type: functional, Betapolyomavirus macacae;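 further: Confirmatory-stage PubChem screen for compounds that inhibit SV40 T antigen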
[1] = target: T1, Voltage-gated N-type calcium channel alpha-1B subunit/Amyloid beta A4 precursor protein-binding family A member 1 (Homo sapiens, UniProt Q00975+Q02410); type: protein assay
[2] = THP-1 cell cytotoxicity, dose response, cytotoxicity control for Vif-APOBEC3G degradation inhibitor project, THP-1 cells (AID 1117359); type: functional; conditions: Human immunodeficiency virus 1, THP-1
[3] = target: Eukaryotic translation initiation factor 4E (Mus musculus, UniProt P63073); test: eIF4E–eIF4G protein interaction inhibitors, dose response, biochemical, TR-FRET (AID 855); type: functional;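 further: potency for disrupting eIF4E binding to eIF4GI seen as loss of FRET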
Chain of Eukaryotic translation initiation factor 4E (P63073 whole entry): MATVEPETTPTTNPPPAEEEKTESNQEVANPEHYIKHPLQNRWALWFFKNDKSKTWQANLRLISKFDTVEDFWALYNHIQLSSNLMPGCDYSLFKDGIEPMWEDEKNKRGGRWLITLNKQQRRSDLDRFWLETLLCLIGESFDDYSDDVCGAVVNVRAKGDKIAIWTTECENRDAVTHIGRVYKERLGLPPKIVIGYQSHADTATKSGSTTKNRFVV

[4] = target: T1, Voltage-gated N-type calcium channel alpha-1B subunit/Amyloid beta A4 precursor protein-binding family A member 1; type: protein assay; remark: listed apart in the source
Integrin alpha-L = Integrin alpha-L (Mus musculus, UniProt P24063); test: modulators of CD8 T cell-vesicle binding, dose response, powder samples, mouse 2C CD8+ cells (AID 504565); type: functional
Trypsin = Trypsin (Sus scrofa, UniProt P00761); test: porcine trypsin inhibitors, dose response, selectivity assay for Rce1 protease inhibitor project, biochemical, quenched peptide fluorescence, cherry-pick (AID 488789)
Chain of Trypsin (P00761 whole entry): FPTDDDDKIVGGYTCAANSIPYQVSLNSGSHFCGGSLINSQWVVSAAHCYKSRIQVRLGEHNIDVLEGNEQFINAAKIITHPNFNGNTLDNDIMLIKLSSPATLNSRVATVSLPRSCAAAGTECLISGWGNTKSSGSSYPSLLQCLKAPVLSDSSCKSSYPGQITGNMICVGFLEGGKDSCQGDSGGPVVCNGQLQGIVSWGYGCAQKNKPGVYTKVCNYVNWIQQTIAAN

[5] = target: T2, DNA repair and recombination protein RAD54-like (Homo sapiens, UniProt Q92698); test: inhibitors of human RAD54 branch migration, confirmation, biochemical, fluorescence, cherry-picked samples, dose series (AID 651657); type: functional
T2 sequence (Q92698 whole entry): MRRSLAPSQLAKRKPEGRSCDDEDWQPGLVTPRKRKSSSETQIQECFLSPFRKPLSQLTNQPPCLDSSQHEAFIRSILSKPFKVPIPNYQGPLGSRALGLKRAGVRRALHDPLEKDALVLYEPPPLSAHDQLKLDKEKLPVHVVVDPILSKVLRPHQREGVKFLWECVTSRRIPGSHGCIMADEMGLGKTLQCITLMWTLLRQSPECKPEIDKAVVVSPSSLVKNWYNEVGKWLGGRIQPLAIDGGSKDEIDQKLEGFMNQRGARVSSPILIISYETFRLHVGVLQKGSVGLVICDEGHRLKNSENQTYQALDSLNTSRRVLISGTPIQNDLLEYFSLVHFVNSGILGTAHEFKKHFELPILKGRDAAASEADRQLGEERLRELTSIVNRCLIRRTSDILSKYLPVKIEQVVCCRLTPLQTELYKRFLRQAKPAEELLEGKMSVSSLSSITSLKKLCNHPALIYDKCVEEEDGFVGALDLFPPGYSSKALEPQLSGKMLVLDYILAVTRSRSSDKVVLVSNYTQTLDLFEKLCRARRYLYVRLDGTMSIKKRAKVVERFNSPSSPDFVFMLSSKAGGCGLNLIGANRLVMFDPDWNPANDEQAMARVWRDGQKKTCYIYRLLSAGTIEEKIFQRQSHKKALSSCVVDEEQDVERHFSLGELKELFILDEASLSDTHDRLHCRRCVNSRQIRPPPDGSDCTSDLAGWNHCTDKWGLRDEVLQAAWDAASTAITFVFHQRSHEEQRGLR

[6] = target: T3, Type-1 angiotensin II receptor (Homo sapiens, UniProt P30556); test: AT1 receptor agonists, dose response, selectivity assay for APJ receptor agonist project, cell-based, uHTS hits (AID 488865); type: functional;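 further: beta-arrestin recruitment to AT1 measured by enzyme fragment complementation luminescence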
T3 sequence (P30556 whole entry): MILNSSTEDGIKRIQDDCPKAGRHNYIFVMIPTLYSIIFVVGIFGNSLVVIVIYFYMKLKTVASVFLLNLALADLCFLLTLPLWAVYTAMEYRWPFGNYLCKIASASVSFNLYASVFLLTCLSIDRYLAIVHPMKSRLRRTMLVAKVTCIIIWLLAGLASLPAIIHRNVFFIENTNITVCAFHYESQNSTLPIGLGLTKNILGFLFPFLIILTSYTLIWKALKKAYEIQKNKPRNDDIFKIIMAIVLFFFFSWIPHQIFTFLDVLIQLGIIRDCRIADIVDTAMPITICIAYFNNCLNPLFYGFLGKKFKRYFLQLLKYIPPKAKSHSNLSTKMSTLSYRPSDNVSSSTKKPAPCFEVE

[7] = target: T4, Kappa-type opioid receptor (Homo sapiens, UniProt P41145); type: functional
T4 sequence (P41145 whole entry): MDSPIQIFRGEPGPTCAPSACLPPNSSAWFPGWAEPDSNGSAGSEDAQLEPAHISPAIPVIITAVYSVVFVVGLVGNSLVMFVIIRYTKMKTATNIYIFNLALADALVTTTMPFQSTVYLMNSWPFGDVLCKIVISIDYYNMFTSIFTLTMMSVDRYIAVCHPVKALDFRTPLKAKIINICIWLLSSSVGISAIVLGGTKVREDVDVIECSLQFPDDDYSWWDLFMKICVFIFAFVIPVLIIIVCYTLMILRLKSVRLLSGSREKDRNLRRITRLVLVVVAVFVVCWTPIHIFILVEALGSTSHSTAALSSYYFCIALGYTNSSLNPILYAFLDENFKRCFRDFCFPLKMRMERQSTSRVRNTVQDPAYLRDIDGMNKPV

[8] = target: T5, C-C chemokine receptor type 6 (Homo sapiens, UniProt P51684); test: CCR6 receptor antagonists, dose response, cell-based, luminescent beta-arrestin readout (AID 504728); type: functional
T5 sequence (P51684 whole entry): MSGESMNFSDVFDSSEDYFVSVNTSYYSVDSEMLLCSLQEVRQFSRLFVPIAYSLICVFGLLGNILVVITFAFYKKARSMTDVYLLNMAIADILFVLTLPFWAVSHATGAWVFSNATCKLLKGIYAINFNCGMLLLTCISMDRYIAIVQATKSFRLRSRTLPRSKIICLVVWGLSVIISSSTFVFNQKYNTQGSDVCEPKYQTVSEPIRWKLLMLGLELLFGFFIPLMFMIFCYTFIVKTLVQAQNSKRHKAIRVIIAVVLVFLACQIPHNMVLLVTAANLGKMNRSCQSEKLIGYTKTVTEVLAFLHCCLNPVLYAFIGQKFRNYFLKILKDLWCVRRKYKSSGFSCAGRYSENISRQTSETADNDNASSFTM

Beta-galactosidase [9] = target: T6, Beta-galactosidase (Escherichia coli, UniProt Q8VNN2); type: functional
T6 sequence (Q8VNN2 whole entry): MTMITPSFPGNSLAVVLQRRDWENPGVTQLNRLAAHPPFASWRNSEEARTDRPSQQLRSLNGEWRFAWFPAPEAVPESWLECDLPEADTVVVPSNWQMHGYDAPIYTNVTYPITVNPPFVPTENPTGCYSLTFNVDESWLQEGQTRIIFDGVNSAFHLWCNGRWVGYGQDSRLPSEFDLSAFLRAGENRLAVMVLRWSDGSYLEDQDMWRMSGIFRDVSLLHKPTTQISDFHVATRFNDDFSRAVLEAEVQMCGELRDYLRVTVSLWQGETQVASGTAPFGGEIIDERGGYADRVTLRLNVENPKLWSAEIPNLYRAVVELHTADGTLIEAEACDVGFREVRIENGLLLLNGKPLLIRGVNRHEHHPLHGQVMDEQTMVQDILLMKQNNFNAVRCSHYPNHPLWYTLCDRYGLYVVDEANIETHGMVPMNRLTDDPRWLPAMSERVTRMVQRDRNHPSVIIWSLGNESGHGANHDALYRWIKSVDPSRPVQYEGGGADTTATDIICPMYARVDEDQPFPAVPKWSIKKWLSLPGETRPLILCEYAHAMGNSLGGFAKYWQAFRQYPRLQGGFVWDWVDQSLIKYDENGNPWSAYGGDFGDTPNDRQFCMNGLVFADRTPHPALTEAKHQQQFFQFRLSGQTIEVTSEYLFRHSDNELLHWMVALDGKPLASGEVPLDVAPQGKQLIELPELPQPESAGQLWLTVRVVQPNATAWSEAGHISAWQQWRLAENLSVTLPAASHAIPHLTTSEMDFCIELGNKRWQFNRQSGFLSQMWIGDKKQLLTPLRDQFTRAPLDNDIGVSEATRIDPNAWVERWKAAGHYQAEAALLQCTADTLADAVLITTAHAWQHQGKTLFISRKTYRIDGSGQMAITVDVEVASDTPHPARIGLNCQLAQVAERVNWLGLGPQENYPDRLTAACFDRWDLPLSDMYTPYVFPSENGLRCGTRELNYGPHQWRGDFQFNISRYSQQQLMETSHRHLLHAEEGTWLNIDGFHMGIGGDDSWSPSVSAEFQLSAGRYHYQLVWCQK

[10] = target: T7, Polyadenylate-binding protein 1 (Homo sapiens, UniProt P11940); test: PABP1 MLLE–PAM2 interaction inhibitors, dose response, miRNA deadenylation inhibitor project, biochemical, fluorescence polarization, Cy5-PAM2 peptide, secondary (AID 602260); type: functional; conditions: read-out: IC50_Mean
Beta-galactosidase [11] = target: T6, Beta-galactosidase; test: beta-galactosidase enzyme inhibitors and activators, dose response, artefact control for CCR6 antagonist project, biochemical, E. coli enzyme, set 3 (AID 504712); type: functional
[12] = target: T4, Kappa-type opioid receptor; type: functional; remark: listed apart in the source
[13] = target: T7, Polyadenylate-binding protein 1; test: PABP1 MLLE–PAM2 binding inhibitor potency, dose response, biochemical, fluorescence polarization, FITC-PAM2 peptide (AID 602259); type: functional; conditions: read-out: IC50_Mean
H9c2 = test: cells; type: functional, cell-based; conditions: Rattus norvegicus, H9c2, Myocardium;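 further: confirmatory concentration-response retest of ultra-high-throughput screening hits for modulation of myocardial damage; cell death induced by hydrogen peroxide oxidative stress; compound pretreatment for 60 min then peroxide exposure for 2 h; potency is for protecting the cells against peroxide damage rather than for killing them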
Cytochrome P450 2C9 = Cytochrome P450 2C9 (Homo sapiens, UniProt P11712); conditions: Potency
[14] = THP-1 cell cytotoxicity, dose response, cytotoxicity control for non-replicating M. tuberculosis project (AID 489025); type: functional
cells = type: functional
[15] = target: T8, Short transient receptor potential channel 4 (Mus musculus, UniProt Q9QUQ5); test: mouse TRPC4 channel activators, dose response, cell-based, HEK293 TRPC4/mu-opioid, Fluo-4 calcium (AID 434937); type: functional
T8 sequence (Q9QUQ5 whole entry): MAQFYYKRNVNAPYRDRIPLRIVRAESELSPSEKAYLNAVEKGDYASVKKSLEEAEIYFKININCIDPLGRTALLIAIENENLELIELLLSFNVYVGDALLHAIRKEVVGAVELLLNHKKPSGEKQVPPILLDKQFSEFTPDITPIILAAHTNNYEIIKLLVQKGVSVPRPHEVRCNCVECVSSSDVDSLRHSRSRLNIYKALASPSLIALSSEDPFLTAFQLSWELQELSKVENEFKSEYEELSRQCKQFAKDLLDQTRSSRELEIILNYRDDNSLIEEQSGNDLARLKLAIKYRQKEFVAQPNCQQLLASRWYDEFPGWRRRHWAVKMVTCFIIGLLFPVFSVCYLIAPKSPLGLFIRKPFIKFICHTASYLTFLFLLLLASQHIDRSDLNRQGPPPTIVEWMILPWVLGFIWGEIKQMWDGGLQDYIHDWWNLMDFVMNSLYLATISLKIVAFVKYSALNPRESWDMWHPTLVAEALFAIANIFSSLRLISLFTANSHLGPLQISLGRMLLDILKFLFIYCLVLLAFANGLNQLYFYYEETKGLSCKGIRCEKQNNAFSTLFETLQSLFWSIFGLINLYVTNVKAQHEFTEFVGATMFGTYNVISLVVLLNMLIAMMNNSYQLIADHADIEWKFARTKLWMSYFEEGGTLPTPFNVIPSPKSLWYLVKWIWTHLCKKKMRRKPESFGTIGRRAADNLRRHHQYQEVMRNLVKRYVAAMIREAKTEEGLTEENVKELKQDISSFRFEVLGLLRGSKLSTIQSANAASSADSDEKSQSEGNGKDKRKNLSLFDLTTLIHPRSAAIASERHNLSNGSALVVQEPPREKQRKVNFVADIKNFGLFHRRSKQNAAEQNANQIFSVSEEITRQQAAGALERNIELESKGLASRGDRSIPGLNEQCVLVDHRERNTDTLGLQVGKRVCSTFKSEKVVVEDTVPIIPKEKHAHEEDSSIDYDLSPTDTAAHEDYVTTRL

T1 sequence (Q00975 whole entry): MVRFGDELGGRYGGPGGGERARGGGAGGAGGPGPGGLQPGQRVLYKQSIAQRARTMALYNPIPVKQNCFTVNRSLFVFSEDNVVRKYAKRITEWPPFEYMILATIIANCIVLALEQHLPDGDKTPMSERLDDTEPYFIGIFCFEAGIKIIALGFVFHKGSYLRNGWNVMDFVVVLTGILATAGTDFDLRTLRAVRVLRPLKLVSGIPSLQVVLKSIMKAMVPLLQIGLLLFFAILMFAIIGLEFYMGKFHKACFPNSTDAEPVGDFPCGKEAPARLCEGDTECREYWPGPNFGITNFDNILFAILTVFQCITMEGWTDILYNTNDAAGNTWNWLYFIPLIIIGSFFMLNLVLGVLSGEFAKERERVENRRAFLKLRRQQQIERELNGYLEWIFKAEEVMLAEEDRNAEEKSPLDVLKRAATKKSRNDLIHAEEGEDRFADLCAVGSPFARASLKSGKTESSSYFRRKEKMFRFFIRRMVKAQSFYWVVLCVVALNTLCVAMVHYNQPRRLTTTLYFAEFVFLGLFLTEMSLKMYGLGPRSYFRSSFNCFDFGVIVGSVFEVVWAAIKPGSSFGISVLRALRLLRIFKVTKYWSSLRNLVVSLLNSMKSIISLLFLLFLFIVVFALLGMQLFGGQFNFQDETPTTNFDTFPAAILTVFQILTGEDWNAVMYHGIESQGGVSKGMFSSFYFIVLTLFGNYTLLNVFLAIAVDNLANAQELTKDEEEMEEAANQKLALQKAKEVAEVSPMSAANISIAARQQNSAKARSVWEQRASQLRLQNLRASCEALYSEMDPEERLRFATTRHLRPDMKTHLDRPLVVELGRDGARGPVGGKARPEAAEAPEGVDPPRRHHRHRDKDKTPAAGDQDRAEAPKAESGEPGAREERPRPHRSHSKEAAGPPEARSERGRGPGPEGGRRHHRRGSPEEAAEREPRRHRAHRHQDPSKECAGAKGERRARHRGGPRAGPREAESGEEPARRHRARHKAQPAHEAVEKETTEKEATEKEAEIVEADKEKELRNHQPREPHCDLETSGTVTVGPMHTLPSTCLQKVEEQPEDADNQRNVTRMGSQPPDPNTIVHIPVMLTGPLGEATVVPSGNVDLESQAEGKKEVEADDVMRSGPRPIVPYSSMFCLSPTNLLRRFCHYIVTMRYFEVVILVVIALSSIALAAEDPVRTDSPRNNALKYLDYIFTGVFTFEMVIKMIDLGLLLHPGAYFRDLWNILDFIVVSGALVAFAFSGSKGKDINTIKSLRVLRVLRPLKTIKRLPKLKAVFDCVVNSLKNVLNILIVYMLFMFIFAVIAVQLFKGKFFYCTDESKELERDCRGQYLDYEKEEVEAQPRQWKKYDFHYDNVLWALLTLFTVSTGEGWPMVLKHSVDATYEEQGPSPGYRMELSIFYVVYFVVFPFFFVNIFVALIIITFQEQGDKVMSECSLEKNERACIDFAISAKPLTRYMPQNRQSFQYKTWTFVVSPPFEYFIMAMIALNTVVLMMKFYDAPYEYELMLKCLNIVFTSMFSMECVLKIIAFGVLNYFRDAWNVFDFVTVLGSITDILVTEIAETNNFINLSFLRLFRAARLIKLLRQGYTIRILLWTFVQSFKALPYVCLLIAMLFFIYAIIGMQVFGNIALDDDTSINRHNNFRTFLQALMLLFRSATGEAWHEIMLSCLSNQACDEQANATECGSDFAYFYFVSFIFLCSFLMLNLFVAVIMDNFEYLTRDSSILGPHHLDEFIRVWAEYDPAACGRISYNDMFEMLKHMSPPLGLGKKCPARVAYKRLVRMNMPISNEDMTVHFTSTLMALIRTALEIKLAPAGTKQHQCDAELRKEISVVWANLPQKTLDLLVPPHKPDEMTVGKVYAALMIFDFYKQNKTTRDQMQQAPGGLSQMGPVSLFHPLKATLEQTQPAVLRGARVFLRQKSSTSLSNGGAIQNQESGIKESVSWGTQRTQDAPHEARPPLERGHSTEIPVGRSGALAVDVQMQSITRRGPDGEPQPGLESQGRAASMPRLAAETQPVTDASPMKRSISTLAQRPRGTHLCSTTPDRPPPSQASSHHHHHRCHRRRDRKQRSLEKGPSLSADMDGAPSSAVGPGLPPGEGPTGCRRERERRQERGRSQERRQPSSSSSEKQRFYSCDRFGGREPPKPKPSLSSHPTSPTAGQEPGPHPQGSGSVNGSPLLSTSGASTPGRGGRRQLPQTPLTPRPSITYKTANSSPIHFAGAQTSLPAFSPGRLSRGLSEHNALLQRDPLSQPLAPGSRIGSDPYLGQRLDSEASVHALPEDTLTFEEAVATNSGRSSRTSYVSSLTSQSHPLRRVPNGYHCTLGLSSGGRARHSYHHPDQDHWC
T1 sequence (Q02410 whole entry): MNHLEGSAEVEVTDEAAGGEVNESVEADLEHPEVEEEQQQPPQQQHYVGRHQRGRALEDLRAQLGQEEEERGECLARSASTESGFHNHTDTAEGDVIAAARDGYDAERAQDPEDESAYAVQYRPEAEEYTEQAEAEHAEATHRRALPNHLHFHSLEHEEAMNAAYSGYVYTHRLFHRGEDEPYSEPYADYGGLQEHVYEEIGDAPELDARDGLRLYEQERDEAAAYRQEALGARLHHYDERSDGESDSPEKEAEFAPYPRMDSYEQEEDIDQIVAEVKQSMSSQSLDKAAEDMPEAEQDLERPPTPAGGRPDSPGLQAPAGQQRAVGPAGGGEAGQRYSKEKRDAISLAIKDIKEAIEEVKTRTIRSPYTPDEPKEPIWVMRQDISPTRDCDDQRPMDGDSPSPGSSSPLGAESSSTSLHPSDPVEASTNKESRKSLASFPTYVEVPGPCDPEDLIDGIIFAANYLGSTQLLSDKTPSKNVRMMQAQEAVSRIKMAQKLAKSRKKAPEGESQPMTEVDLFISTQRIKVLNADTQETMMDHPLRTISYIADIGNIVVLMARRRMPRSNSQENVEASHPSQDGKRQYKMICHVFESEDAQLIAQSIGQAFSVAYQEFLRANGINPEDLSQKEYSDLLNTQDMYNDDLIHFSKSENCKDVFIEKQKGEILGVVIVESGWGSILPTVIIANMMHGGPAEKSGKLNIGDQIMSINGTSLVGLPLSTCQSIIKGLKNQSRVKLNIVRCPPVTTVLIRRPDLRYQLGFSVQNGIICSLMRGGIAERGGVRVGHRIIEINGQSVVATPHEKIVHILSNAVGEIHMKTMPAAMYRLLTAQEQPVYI

What does the source list for `O=C(CSc1nc2ccccc2n1CCc1ccccc1)c1ccc(O)c(O)c1`?
IC50 (Large T antigen): 35.9 µM (active); IC50 [1]: > 50 µM (inactive); CC50 [2]: > 40 µM (active); IC50 [3]: 23.7 µM (active); IC50 [4]: 9.4 µM (active)

Which EC50 (Integrin alpha-L) does the source give for `O=C(NCC1CCCCC1)c1ccc(Cl)c(S(=O)(=O)N2CCOCC2)c1` here?
The EC50 was 20.1 µM (active).

Which AC50 (Trypsin) does the source give for `Nc1c(C(=O)NCc2ccccc2)sc2nc(N3CCOCC3)c3c(c12)CCCC3` here?
Its AC50 is 14.8 µM (active).

For `COc1cccc2sc3ccc(NCCC4CCCN4C)cc3c(=O)c12` (configuration not stated), which AC50 [5] is on record?
The AC50 was 22.8 µM (active).

And the EC50 [6]?
The EC50 was > 100 µM (inactive).

With `COc1ccc(NC(=S)NC(NC(=O)c2ccccc2Cl)C(Cl)(Cl)Cl)c([N+](=O)[O-])c1` (configuration not stated) as the molecule, how does the pIC50 [7] read?
The pIC50 was 5.29.

And the IC50 [8]?
The IC50 was > 66.6 µM (inactive).

What about the EC50 (Beta-galactosidase [9]) of the same molecule?
The EC50 was > 31.5 µM (inactive).

What about the IC50 [10] of the same molecule?
Its IC50 is > 66 µM (inactive).

What about the IC50 (Beta-galactosidase [11]) of the same molecule?
The IC50 was > 66.6 µM (inactive).

What about the IC50 [12] of the same molecule?
Its IC50 is 7.41 µM (active).

And the IC50 [13]?
The IC50 was > 66 µM (inactive).

Which results are given for `CCOc1ccc2nc(O)c(CN(CCO)C(c3nnnn3C3CCCCC3)C(C)C)cc2c1` (configuration not stated)?
IC50 (H9c2): > 79 µM (inactive); EC50 [6]: > 100 µM (inactive)

For `COc1ccc([C@@H]2OC[C@]3(COC(C)=O)[C@H](C)C=C(C)[C@@H]2[C@H]3C)cc1`, which AC50 (Cytochrome P450 2C9) is on record?
The AC50 was 20 µM (inconclusive).

Which CC50 [14] does the source give for `O=C(CCS(=O)(=O)c1ccccc1)Nc1nnc(-c2ccco2)o1` here?
The CC50 was > 40 µM (active).

What about the IC50 (cells) of the same molecule?
Its IC50 is 48.6 µM (active).

Which EC50 [15] does the source give for `Cc1ccc(C)c(CN2CCC(CNC(=O)CCc3nnc4ccc(N5CCCCC5)nn34)CC2)c1` here?
The EC50 was 0.299 µM (active).

Reference: ChEMBL document CHEMBL1201862, “PubChem BioAssay data set” (2004)
